These results are taken from ChEMBL document CHEMBL1201862, “PubChem BioAssay data set” (2004).

SMILES strings stand for the structures. Active and inactive are the calls of the source. Some results are limits rather than exact numbers.

Experiment [1] can be described thus: inhibitors of firefly luciferase expression or activity, dose response, H4 neuroglioma cells, luminescence (AID 1990). The format is functional, cell-based.
For experiment [2], the system named is HEK293. Nature of the experiment: NOD1 signaling inhibitors, primary screen, cell-based, luminescence, uHTS (AID 1578). The experiment is classed as functional. The settings on record: Homo sapiens.
Experiment [3] deals with Streptococcus sp. 'group A'. In words: growth inhibition of control SK(-) GAS strain, dose response, counter-screen for streptokinase expression inhibitor project, luminescence, kanamycin, BacTiterGlo, confirmation (AID 1900). The format is functional, organism-based.
For experiment [4], the system named is HEK293. Nature of the experiment: cells. The settings on record: Homo sapiens. The experiment is classed as functional, cell-based.
Another experiment addresses T1, Streptokinase A (Streptococcus pyogenes serotype M1, UniProt P10520).
T1 sequence (P10520 whole entry): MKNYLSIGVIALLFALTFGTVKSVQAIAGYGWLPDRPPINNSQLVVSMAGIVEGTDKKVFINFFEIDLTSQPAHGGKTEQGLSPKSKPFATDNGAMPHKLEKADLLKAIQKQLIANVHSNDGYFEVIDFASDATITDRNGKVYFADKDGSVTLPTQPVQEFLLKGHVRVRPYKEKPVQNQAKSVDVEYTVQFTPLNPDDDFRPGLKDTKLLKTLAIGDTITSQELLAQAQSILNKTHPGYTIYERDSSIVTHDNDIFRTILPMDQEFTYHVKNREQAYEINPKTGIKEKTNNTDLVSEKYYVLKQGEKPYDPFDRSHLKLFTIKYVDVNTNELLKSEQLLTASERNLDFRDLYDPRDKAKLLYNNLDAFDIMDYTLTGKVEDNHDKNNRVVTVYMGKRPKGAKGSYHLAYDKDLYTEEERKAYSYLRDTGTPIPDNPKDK
Nature of the experiment: S. pyogenes streptokinase expression inhibitors, potency, dose response, plasminogen activation absorbance, OD405 (AID 1914).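 Also: secreted streptokinase activity via plasminogen activation per viability signal from cell pellet.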 The experiment is classed as functional, Streptococcus pyogenes M1 GAS.

Experiment [5] has as its system HEK293. Nature of the experiment: cells. The experiment is classed as functional, cell-based. The settings on record: Homo sapiens. The source holds these as a separate data set.
The nature of experiment [6]: microbe, parasite or virus in culture. The experiment is classed as functional. The settings on record: Mycobacterium tuberculosis.
Another experiment deals with Streptococcus. Nature of the experiment: Group A Streptococcus viability loss, dose response, counter-screen for streptokinase expression inhibitor project, luminescence, BacTiterGlo (AID 1915).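 Also: potency for reduction of bacterial viability or growth.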 The format is functional, organism-based. (In general: Counterscreens check selectivity or assay interference.)
The next experiment addresses T2, Bcl-2-related protein A1 (Mus musculus, UniProt Q07440).
T2 sequence (Q07440 whole entry): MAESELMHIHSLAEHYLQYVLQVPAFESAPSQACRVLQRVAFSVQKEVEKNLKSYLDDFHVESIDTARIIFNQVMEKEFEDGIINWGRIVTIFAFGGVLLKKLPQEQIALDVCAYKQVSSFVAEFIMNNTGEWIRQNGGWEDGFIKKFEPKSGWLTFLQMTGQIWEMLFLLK
The format is functional.

Experiment [7] has as its target T3, Ubiquitin-conjugating enzyme E2 N (Homo sapiens, UniProt P61088).
T3 sequence (P61088 whole entry): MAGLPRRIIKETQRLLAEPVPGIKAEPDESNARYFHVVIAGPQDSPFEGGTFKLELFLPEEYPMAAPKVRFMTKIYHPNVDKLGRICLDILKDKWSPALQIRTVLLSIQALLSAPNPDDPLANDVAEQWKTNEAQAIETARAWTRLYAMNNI
The experiment is classed as functional.

Experiment [8] addresses T3, Ubiquitin-conjugating enzyme E2 N. The experiment is classed as functional. This is another data set of the same source.
For experiment [9], the system named is HEK293. In words: inhibitors of LMP1-driven NF-kB reporter, dose response, cell-based, HEK293, luciferase, cherry-pick (AID 588343). The experiment is classed as functional, Homo sapiens. The settings on record: Homo sapiens, HEK293.
Experiment [10] concerns the target Dual specificity protein kinase CLK1 (Homo sapiens, UniProt P49759). Nature of the experiment: CLK1 kinase inhibitors, off-target check, dose response, selectivity assay for Dyrk1A inhibitor project, biochemical, cherry-picked samples (AID 588811).
Experiment [11] deals with Dual specificity tyrosine-phosphorylation-regulated kinase 1A (Rattus norvegicus, UniProt Q63470). The format is biochemical, Homo sapiens.
Experiment [12] is described as follows: Shn3 3'UTR reporter inhibitors, dose response, cell-based, Clone20 osteoblasts, firefly luciferase, cherry-picked (AID 624132).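 Also: firefly luciferase luminescence from reporter carrying the Shn3 3'UTR in osteoblasts.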 The format is functional.
The nature of experiment [13]: HepG2 cell cytotoxicity, dose response, cytotoxicity control for Shn3 inhibitor project, CellTiter-Glo, cherry-picked (AID 624134). The experiment is classed as functional, cell-based. In general terms: In ATP-based viability assays light output follows the ATP content of the culture.
Experiment [14] is described as follows: control 3'UTR Renilla luciferase suppression, dose response, counter-screen for Shn3 inhibitor project, cell-based, Clone20-Shn3RL, cherry-picked (AID 624133). The experiment is classed as functional.
Experiment [15] concerns the target Hepatocyte nuclear factor 4-alpha (Homo sapiens, UniProt P41235). The experiment is classed as functional, cell-based.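 Also: biochemical luminescence-based dose-response counterscreen measuring inhibition of HNF4 dimerization, run alongside a screen for blockers of ABHD5–perilipin-5 interaction; split luciferase complementation of HNF4 fusion proteins in cell lysate measuring dimerization.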
A short description of experiment [16]: HeLa cell cytotoxicity, dose response, cytotoxicity control for MgcRacGAP inhibitor project (AID 624300). The format is functional.
For experiment [17], the target named is T4, Rac GTPase-activating protein 1 (Homo sapiens, UniProt Q9H0H5).
T4 sequence (Q9H0H5 whole entry): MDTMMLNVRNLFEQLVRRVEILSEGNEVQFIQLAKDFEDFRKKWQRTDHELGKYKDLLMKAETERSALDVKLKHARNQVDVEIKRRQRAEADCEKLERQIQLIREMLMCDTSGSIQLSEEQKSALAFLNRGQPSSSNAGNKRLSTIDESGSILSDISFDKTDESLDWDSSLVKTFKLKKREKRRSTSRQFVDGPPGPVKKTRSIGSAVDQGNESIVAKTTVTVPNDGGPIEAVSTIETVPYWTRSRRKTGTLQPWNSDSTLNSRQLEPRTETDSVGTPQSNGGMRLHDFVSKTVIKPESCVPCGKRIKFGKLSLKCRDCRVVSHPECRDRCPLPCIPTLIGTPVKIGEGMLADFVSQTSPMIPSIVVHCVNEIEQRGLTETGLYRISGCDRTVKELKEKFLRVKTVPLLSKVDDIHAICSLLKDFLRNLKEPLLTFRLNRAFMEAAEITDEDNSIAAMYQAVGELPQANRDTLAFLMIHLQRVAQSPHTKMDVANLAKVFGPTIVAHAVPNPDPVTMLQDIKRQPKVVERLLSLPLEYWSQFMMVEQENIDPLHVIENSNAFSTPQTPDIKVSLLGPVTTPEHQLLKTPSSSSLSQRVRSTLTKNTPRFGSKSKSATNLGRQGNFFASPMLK
Nature of the experiment: MgcRacGAP GTPase-activating activity inhibitors, confirmation, biochemical, ADP Hunter fluorescence, primary and confirmatory (AID 624330). The experiment is classed as functional.

Another experiment deals with Beta-galactosidase (Escherichia coli, UniProt Q8VNN2). In words: PubChem AID 485352. The format is functional.
Beta-galactosidase, sequence (Q8VNN2 whole entry): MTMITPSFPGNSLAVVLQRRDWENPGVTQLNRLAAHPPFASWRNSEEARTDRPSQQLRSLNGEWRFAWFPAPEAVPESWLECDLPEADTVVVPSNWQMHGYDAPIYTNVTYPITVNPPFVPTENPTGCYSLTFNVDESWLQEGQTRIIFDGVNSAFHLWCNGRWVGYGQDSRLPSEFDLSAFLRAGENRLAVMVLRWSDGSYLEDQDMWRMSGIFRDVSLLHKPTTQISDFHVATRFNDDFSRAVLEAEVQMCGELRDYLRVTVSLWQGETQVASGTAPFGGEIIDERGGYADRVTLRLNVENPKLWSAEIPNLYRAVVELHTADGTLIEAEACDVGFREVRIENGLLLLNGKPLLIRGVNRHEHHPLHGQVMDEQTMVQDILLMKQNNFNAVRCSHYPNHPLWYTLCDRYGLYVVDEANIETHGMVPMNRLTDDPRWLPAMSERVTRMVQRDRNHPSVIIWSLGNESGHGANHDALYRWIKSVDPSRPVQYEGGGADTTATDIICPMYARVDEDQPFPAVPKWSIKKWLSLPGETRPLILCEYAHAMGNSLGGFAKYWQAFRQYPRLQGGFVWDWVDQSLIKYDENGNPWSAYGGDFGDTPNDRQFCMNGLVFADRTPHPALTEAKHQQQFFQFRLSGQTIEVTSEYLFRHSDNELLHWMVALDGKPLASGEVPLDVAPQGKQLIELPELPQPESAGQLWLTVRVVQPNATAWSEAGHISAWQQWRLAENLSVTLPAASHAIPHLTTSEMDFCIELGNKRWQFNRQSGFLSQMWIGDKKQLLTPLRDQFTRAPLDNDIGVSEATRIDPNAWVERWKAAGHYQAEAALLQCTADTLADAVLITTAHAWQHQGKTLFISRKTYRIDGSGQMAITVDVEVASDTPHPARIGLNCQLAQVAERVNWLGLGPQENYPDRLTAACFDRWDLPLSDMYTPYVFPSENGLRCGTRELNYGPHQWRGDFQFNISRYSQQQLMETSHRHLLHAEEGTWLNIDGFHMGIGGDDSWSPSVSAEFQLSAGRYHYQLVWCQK
Experiment [18] deals with T5, Type-1 angiotensin II receptor (Homo sapiens, UniProt P30556).
T5 sequence (P30556 whole entry): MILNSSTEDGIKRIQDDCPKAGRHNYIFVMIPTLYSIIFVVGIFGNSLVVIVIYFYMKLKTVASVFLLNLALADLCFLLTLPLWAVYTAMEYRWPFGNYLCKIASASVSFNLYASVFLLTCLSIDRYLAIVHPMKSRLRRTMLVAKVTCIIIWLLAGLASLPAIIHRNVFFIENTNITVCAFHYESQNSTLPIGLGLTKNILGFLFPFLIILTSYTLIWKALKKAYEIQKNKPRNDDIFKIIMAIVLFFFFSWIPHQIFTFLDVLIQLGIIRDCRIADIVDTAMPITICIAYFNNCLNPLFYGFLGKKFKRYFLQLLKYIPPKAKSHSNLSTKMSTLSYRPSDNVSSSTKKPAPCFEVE
In words: AT1 receptor antagonists, dose response, selectivity assay for APJ receptor antagonist project, cell-based, uHTS hits (AID 463214).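 Also: antagonist potency against angiotensin II stimulated AT1 response.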 The experiment is classed as functional.

Experiment [19] addresses T6, Endoribonuclease toxin MazF (Escherichia coli K-12, UniProt P0AE70).
T6 sequence (P0AE70 whole entry): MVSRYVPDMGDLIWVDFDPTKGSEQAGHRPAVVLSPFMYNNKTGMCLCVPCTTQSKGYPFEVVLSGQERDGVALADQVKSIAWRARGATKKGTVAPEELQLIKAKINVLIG
In words: MazF toxin RNase activators, dose response, biochemical, fluorescence, single-stranded RNA substrate, uHTS hits (AID 588481). The experiment is classed as functional.

Experiment [20] addresses T6, Endoribonuclease toxin MazF. Nature of the experiment: fluorescent RNA oligo signal without MazF, dose response, counter-screen for MazEF activator project, biochemical, fluorescence, single-stranded RNase substrate (AID 588502). The experiment is classed as functional.
Experiment [21] can be described thus: cells. The experiment is classed as functional, cell-based.
Experiment [22] in a line: Luminescence Cell-Based Dose Response HTS to Identify Inhibitors of 5'UTR Stem-Loop Driven Prion Protein mRNA Translation in H4 Neuroglioblastoma Cells. [Related pubchem assays: 1827 (Project Summary), 1813 (Primary HTS)]. The format is functional.
Experiment [23] in a line: inhibitors of SNCA 5'UTR-driven reporter translation, confirmation, H4 neuroglioma cells, luminescence (AID 1988). The format is functional, cell-based.
Experiment [24] is described as follows: cells. The format is functional, cell-based. This is another data set of the same source.
The next experiment addresses Nonstructural protein 1 (Influenza A virus, UniProt Q194T2). The format is functional, Influenza A virus (A/California/07/2009(H1N1)).
For the next experiment, the system named is INS1. Nature of the experiment: beta cell apoptosis inhibitors, cytokine rescue, dose response, luminescence, retest (AID 449756).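 Also: cell death triggered by IL-1 beta plus TNF-alpha plus IFN-gamma mixture; protective hits raise ATP signal compared with cytokine alone wells.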 The experiment is classed as functional, cell-based. The settings on record: Rattus norvegicus.

Dual specificity protein kinase CLK1, sequence (P49759 whole entry): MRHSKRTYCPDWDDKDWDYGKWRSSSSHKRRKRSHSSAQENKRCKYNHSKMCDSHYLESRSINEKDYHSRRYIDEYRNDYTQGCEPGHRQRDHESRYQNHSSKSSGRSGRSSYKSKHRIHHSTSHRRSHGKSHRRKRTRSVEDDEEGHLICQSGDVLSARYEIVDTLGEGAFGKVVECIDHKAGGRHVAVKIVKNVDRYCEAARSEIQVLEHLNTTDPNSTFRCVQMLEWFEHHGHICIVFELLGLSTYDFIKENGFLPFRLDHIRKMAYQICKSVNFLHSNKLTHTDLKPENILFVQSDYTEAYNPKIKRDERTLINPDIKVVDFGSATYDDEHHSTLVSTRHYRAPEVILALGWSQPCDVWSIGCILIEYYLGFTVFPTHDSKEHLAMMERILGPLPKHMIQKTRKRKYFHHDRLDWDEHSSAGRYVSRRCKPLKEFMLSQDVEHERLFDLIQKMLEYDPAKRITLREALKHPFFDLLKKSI
Hepatocyte nuclear factor 4-alpha, sequence (P41235 whole entry, the tested form may be a part): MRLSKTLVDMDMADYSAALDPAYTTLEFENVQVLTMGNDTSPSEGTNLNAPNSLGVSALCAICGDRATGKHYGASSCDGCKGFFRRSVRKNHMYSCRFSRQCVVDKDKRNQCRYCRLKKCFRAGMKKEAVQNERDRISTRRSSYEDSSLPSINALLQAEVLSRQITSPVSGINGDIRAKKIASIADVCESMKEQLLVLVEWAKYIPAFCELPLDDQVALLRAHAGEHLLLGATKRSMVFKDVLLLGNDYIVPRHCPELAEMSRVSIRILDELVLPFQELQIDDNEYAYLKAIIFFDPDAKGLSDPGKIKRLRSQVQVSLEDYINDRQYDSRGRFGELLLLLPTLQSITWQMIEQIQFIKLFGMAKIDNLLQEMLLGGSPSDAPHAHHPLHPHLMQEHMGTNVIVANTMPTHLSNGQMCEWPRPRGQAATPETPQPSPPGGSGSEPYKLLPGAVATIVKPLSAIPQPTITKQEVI
Nonstructural protein 1, sequence (Q194T2 whole entry): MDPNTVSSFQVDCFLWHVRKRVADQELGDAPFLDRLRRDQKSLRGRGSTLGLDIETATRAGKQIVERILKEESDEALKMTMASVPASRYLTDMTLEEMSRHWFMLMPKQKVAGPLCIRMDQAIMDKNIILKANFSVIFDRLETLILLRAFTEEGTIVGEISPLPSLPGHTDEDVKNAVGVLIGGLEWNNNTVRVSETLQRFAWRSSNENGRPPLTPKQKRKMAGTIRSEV

The term EC50 denotes the midpoint of the concentration-response curve. A word on the IC50: it is the midpoint of a concentration-inhibition curve. Usually AC50 stands for the concentration at which the activity in the assay is half-maximal. Consider `CCN1CCN(Cc2ccc(NC(=O)c3ccc(C)c(/C=C/c4cnc(Nc5cc(N6CCNCC6)nc(C)n5)cn4)c3)cc2C(F)(F)F)CC1`, for which the 50% effective concentration (EC50) in experiment [1] is 0.424 µM (inconclusive); with HEK293 [2], 7.23 µM (active); in experiment [3], 6.36 µM (active); on Streptokinase A, 86.5 µM (active); with Streptococcus, > 150 µM (not active). Moreover, the IC50 with HEK293 [4] was > 20 µM (inactive); with HEK293 [5], > 20 µM (inactive); at Bcl-2-related protein A1, > 20 µM (inactive); in experiment [7], 9.4 µM (active); in [8], 11.1 µM (active); in [15] it was 5.88 µM (active). Moreover, the 50% inhibitory concentration (IC50) in experiment [17] was 41 µM (active). Besides, the results for the CC50 in experiment [6] and in experiment [16] were 6.89 µM (active) and 21.6 µM (active), respectively. Also, the concentration at half-maximal activity (AC50) was 0.725 µM (active) in the experiment on HEK293 [9]; 1.99 µM (active) in experiment [10]; 12.8 µM (active) in [11]; 9.56 µM (active) in experiment [12]; 19.6 µM (active) in [13]; 27.6 µM (active) in [14].
Regarding `O=C(CCC(=O)OCC(=O)c1cccc([N+](=O)[O-])c1)Nc1cccc(Cl)c1Cl`, on Beta-galactosidase, the EC50 is > 40 µM (inactive). Moreover, the IC50 in [18] is listed as 34.2 µM (not active).
Consider `Cc1cc(OCC(=O)NCc2ccc(S(N)(=O)=O)cc2)c2c3c(c(=O)oc2c1)CCC3`, for which the EC50 in [19] and in experiment [20] was > 99 µM (inactive) throughout.
In the case of `Cc1ncc(CO)c(/C=N/Nc2ccc(C(F)(F)F)cn2)c1O`, the half-maximal effective concentration (EC50) in experiment [1] is 5.4 µM (active); in “cells [21]”, 8.1 µM (active); in experiment [22], 1.01 µM (active); at Beta-galactosidase it was > 40 µM (inactive); in [23], 0.907 µM (active); in “cells [24]” it was > 350 µM (not active). In addition, the values for the IC50 (in experiment [18]; on Nonstructural protein 1) were 28.7 µM (not active) and 7.34 µM (active), respectively. Also, the AC50 was 0.944 µM (active) with INS1 and 5.06 µM (active) in [11].
